The results in this text go back to patent publication US20160304556A1, “[…] ACTIVE COMPOUNDS AND THEIR METHODS OF USE” (AGIOS PHARMACEUTICALS, INC, priority 2012, published 2016).

Assay [1] addresses IDH1 R132H (Homo sapiens, UniProt O75874, R132H). Nature of the assay: In vitro NADPH depletion assay for IDH1m R132H inhibitors. Type of assay: biochemical. As to conditions: enzyme, diaphorase/resazurin readout, read-out: IDH R132H IC50. How it is done: (§1) A test compound is prepared as 10 mM stock in DMSO and diluted to 50× final concentration in DMSO, for a 50 μl reaction mixture. IDH enzyme activity converting alpha-ketoglutarate to 2-hydroxyglutaric acid is measured using a NADPH depletion assay. In the assay the remaining cofactor is measured at the end of the reaction with the addition of a catalytic excess of diaphorase and resazurin, to generate a fluorescent signal in proportion to the amount of NADPH remaining. IDH1-R132 homodimer enzyme is diluted to […] in 40 μl of Assay Buffer(150 mM NaCl, 20 mM Tris-Cl pH 7.5, 10 mM MgCl2, 0.05% BSA, 2 mM b-mercaptoethanol); 1 μl of test compound dilution in DMSO is added and the mixture is incubated for 60 minutes at room temperature. The reaction is started with the addition of 10 μl of Substrate Mix ([…], 5 mM alpha-ketoglutarate, in Assay Buffer) and the mixture is incubated for 90 minutes at room temperature. The reaction is terminated with the addition of 25 μl of Detection Buffer (36 μg/ml diaphorase, […], in 1× Assay Buffer), and is incubated for 1 minute before reading on a SpectraMax platereader at Ex544/Em590.
(§2) Representative compounds of formula I set forth in Table 1 were tested in this assay and the results are set forth below in Table 3.
Background: Resazurin is reduced to fluorescent resorufin, in cell work by metabolically active cells.

Assay [2] concerns the target IDH1 R132C (Homo sapiens, UniProt O75874, R132C). Nature of the assay: In vitro NADPH depletion assay for IDH1m R132C inhibitors. Type of assay: biochemical. As to conditions: enzyme, diaphorase/resazurin readout, read-out: IDH R132C IC50. Here is the method: as §1
Compounds are assayed for their activity against IDH1 R132C following the same assay as above with the following modifications: Assay Buffer is (50 mM potassium phosphate, pH 6.5; 40 mM sodium carbonate, 5 mM MgCl2, 10% glycerol, 2 mM b-mercaptoethanol, and 0.03% BSA). The concentration of NADPH and alpha-ketoglutarate in the Substrate Buffer is 20 μM and 1 mM, respectively.
as §2

Assay [3] relates to HT1080 cells. Nature of the assay: Cellular assay, inhibition of 2-HG production (LC-MS) in HT1080 cells. Type of assay: cell-based. Particulars: Homo sapiens, HT-1080, 48 hours, LC-MS of media. How it is done: Cells (HT1080 or U87MG) are grown in T125 flasks in DMEM containing 10% FBS, 1× penicillin/streptomycin and 500 ug/mL G418 (present in U87MG cells only). They are harvested by trypsin and seeded into 96 well white bottom plates at a density of 5000 cell/well in 100 μl/well in DMEM with 10% FBS. No cells are placed in columns 1 and 12. Cells are incubated overnight at 37° C. in 5% CO2. The next day test compounds are made up at 2× the final concentration and 100 μl are added to each cell well. The final concentration of DMSO is 0.2% and the DMSO control wells are plated in row G. The plates are then placed in the incubator for 48 hours. At 48 hours, 100 μl of media is removed from each well and analyzed by LC-MS for 2-HG concentrations. The cell plate is placed back in the incubator for another 24 hours. At 72 hours post compound addition, 10 mL/plate of Promega Cell Titer Glo reagent is thawed and mixed. The cell plate is removed from the incubator and allowed to equilibrate to room temperature. Then 100 μl of Promega Cell Titer Glo reagent is added to each well of media. The cell plate is then placed on an orbital shaker for 10 minutes and then allowed to sit at room temperature for 20 minutes. The plate is then read for luminescence with an integration time of 500 ms.
The IC50 for inhibition of 2-HG production (concentration of test compound to reduce 2HG production by 50% compared to control) in these two cell lines for various compounds of formula I is set forth in Table 2 above.

IDH1 R132H, sequence (O75874 whole entry R132H): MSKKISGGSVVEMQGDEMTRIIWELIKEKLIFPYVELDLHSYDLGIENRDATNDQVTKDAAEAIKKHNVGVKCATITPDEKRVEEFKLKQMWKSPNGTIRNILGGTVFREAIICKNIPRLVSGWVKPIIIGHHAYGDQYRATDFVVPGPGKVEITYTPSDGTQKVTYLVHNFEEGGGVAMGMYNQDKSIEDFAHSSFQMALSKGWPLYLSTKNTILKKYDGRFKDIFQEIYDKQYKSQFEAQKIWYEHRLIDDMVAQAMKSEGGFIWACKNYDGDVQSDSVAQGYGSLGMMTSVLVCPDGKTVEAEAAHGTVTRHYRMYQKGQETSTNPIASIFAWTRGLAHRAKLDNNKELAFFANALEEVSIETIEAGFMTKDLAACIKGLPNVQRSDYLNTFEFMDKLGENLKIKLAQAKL
IDH1 R132C, sequence (O75874 whole entry R132C): as the sequence (O75874 whole entry R132H) above, with H132C counted along it

Turning to `COC(=O)NCC(=O)N(c1cccc(F)c1)C(C(=O)NC1CC(F)(F)C1)c1c(Cl)cccc1Cl` (stereo not drawn) [Compound 76], the IC50 in assay [1] and in assay [2] was 100 to 500 nM throughout.

As to `O=C(NC1CC(F)(F)C1)C(c1ccccc1Cl)N(C(=O)c1ccnn1-c1ncccn1)c1cccc(F)c1` (stereo not drawn) [Compound 116, N-(1-(2-chlorophenyl)-2-((3,3-difluorocyclobutyl)amino)-2-oxoethyl)-N-(3-fluorophenyl)-1-(pyrimidin-2-yl)-1H-pyrazole-5-carboxamide], the concentration for half-maximal inhibition (IC50) (in general, the concentration that gives 50% inhibition) fell in the range of 500 to 1000 nM in assay [1] and 100 to 500 nM in assay [2].

For the compound `COC(=O)N1CCN(C)C[C@H]1C(=O)N(c1cccc(F)c1)[C@H](C(=O)NC1CC(F)(F)C1)c1ccccc1Cl` [Compound 80, (S)-Methyl 2-(((S)-1-(2-chlorophenyl)-2-(3,3-difluorocyclobutylamino)-2-oxoethyl)-(3-fluorophenyl)carbamoyl)-4-methylpiperazine-1-carboxylate], the IC50 in assay [1] and in assay [2] was 100 to 500 nM in each case.

Regarding `COC(=O)N[C@H](C(=O)N(c1cccc(F)c1)C(C(=O)NC1CC(F)(F)C1)c1ccccc1Cl)[C@@H](C)O` (stereo partly drawn) [Compound 99], the IC50 in assay [1] and in assay [2] was 500 to 1000 nM in each case.

As to `COC(=O)NCC(=O)N(c1cccc(F)c1)C(C(=O)NC1CC(F)(F)C1)c1c(F)cccc1F` (stereo not drawn) [Compound 78], the values for the IC50 in assay [1] and in assay [2] were 500 to 1000 nM and 1000 to 2000 nM, respectively.

Consider `COC(=O)N1C[C@H](OCCN(C)C)C[C@H]1C(=O)N(c1cccc(F)c1)[C@H](C(=O)NC1CC(F)(F)C1)c1ccccc1Cl` [Compound 104], for which the IC50 in assay [1] lay in the range of 500 to 1000 nM; in assay [2] it was 1000 to 2000 nM.

As to `COC(=O)N1C[C@H](N)C[C@H]1C(=O)N(c1cccc(F)c1)[C@H](C(=O)NC1CC(F)(F)C1)c1ccccc1Cl` [Compound 65], the IC50 in assay [1] lay in the range of 100 to 500 nM; in assay [2], 500 to 1000 nM.

As for `O=C(NC1CC(F)(F)C1)C(c1ccccc1Cl)N(C(=O)Cn1ccnc1CO)c1cccc(F)c1` (stereo not drawn) [Compound 72], the IC50 in assay [1] was 100 to 500 nM; in assay [2], 500 to 1000 nM.

As to `COC(=O)N1C[C@@H](N)C[C@H]1C(=O)N(c1cccc(F)c1)[C@H](C(=O)NC1CC(F)(F)C1)c1ccccc1Cl` [Compound 89], the IC50 in assay [1] fell in the range of 100 to 500 nM; in assay [2], 500 to 1000 nM.

As to `O=C(NC1CCC(F)(F)CC1)C(c1ccccc1Cl)N(C(=O)Cn1cnnn1)c1cccc(F)c1` (stereo not drawn) [Compound 49], the IC50 in assay [1] and in assay [2] was 100 to 500 nM in each case.

For the compound `COC(=O)N[C@@H](CO)C(=O)N(c1cccc(F)c1)C(C(=O)NC1CC(F)(F)C1)c1ccccc1Cl` (stereo partly drawn) [Compound 56], the IC50 in assay [1] is 100 to 500 nM; in assay [2], 500 to 1000 nM.

As to `COC(=O)NCC(=O)N(c1cccc(F)c1)[C@H](C(=O)N[C@@H]1CCCC(F)(F)C1)c1ccccc1Cl` (single isomer, unassigned) [Compound 95, methyl 2-((1-(2-chlorophenyl)-2-(3,3-difluorocyclohexylamino)-2-oxoethyl) (3-fluoro-phenyl)amino)-2-oxoethylcarbamate], the IC50 in assay [1] and in assay [2] was 100 to 500 nM each time.

For `COC(=O)NCC(=O)N(c1cccc(F)c1)[C@H](C(=O)N[C@H]1CCCC(F)(F)C1)c1ccccc1Cl` (single isomer, unassigned) [Compound 94, methyl 2-((1-(2-chlorophenyl)-2-(3,3-difluorocyclohexylamino)-2-oxoethyl) (3-fluoro-phenyl)amino)-2-oxoethylcarbamate], the IC50 in assay [1] and in assay [2] was 100 to 500 nM throughout.

In the case of `COC(=O)N1C[C@@H](OC)C[C@H]1C(=O)N(c1cccc(F)c1)[C@H](C(=O)NC1CC(F)(F)C1)c1ccccc1Cl` [Compound 63], the figures for the IC50 in assay [1] and in assay [3] were at most 100 nM and 1000 to 2000 nM, respectively.

`Cc1ccccc1[C@@H](C(=O)NC1CCCCC1)N(C(=O)[C@H]1CCCN1S(C)(=O)=O)c1cccc(F)c1` [Compound 2]: the IC50 lay in the range of 100 to 500 nM in assay [1] and 1000 to 2000 nM in assay [3].

Consider `O=C(NC1CCCCC1)C(c1ccccc1Cl)N(C(=O)C1CCc2ccccc2N1)c1cccc(F)c1` (stereo not drawn) [Compound 31, N-(1-(2-chlorophenyl)-2-(cyclohexylamino)-2-oxoethyl)-N-(3-fluorophenyl)-1,2,3,4-tetrahydroquinoline-2-carboxamide], for which the figures for the 50% inhibitory concentration (IC50) in assay [1] and in assay [3] were at most 100 nM and 100 to 500 nM, respectively.

Consider `CCS(=O)(=O)NCC(=O)N(c1cccc(F)c1)C(C(=O)NC1CCCCC1)c1ccccc1C` (stereo not drawn) [Compound 6], for which the IC50 lay within 100 to 500 nM in assay [1] and 1000 to 2000 nM in assay [3].

For `O=C(NC1CC(F)(F)C1)C(c1ccccc1Cl)N(C(=O)Cc1ccncc1)c1cccc(F)c1` (stereo not drawn) [Compound 64], the IC50 in assay [1] is at most 100 nM; in assay [3], 100 to 500 nM.

Consider `Cc1ccccc1C(C(=O)NC1CCC(F)(F)CC1)N(C(=O)Cn1ccnc1C(F)(F)F)c1cccc(F)c1` (stereo not drawn) [Compound 11], for which the IC50 was in the range of 100 to 500 nM in assay [1] and 500 to 1000 nM in assay [3].

For the compound `Cc1nccn1CC(=O)N(c1cccc2[nH]ncc12)C(C(=O)NC1CCCCC1)c1ccccc1Cl` (stereo not drawn) [Compound 26], the results for the IC50 in assay [1] and in assay [3] were 100 to 500 nM and 1000 to 2000 nM, respectively.

In the case of `COC(=O)N1COC[C@H]1C(=O)N(c1cccc(F)c1)[C@H](C(=O)NC1CC(F)(F)C1)c1ccccc1Cl` [Compound 54], the IC50 in assay [1] was at most 100 nM; in assay [3] it was 500 to 1000 nM.

As for `COC(=O)N1CCOC[C@H]1C(=O)N(c1cccc(F)c1)[C@H](C(=O)NC1CC(F)(F)C1)c1ccccc1Cl` [Compound 53], the IC50 in assay [1] is at most 100 nM; in assay [3], 100 to 500 nM.

For `O=C(NC1CCCCC1)C(c1ccccc1Cl)N(C(=O)C1Cc2ccccc2N1)c1cccc(F)c1` (stereo not drawn) [Compound 32], the IC50 in assay [1] and in assay [3] was 100 to 500 nM in each case.

For `COC(=O)N1C[C@H](F)C[C@H]1C(=O)N(c1cccc(F)c1)[C@H](C(=O)NC1CC(F)(F)C1)c1ccccc1Cl` [Compound 55, (2S,4R)-methyl 2-(((S)-1-(2-chlorophenyl)-2-((3,3-difluorocyclo-butyl)amino)-2-oxoethyl)(3-fluorophenyl)carbamoyl)-4-fluoropyrrolidine-1-carboxylate], the IC50 is at most 100 nM in assay [1] and 500 to 1000 nM in assay [3].

For the compound `O=C(NC1CCC(F)(F)CC1)C(c1ccccc1Cl)N(C(=O)Cn1cncn1)c1cccc(F)c1` (stereo not drawn) [Compound 45], the IC50 fell in the range of 100 to 500 nM in assay [1] and 1000 to 2000 nM in assay [3].

Regarding `COC(=O)N1CCC[C@H]1C(=O)N(c1cccc(S(N)(=O)=O)c1)[C@H](C(=O)NC1CCC(F)(F)CC1)c1ccccc1Cl` [Compound 57], the IC50 in assay [1] was in the range of 100 to 500 nM; in assay [3], 500 to 1000 nM.

As to `O=C(NC1CCCCC1)C(c1ccccc1Cl)N(C(=O)Cn1cncn1)c1cccc(F)c1` (stereo not drawn) [Compound 24], the results for the IC50 in assay [1] and in assay [3] were at most 100 nM and 100 to 500 nM, respectively.

As for `COC(=O)N(C)[C@@H](C)C(=O)N(c1cccc(F)c1)[C@H](C(=O)NC1CCCCC1)c1ccccc1C` [Compound 5], the IC50 in assay [1] was at most 100 nM; in assay [3], 500 to 1000 nM.

Consider `COC(=O)N1CCNC[C@H]1C(=O)N(c1cccc(F)c1)[C@H](C(=O)NC1CC(F)(F)C1)c1ccccc1Cl` [Compound 62, (S)-Methyl 2-(((S)-1-(2-chlorophenyl)-2-(3,3-difluorocyclobutylamino)-2-oxoethyl) -(3-fluoro-phenyl)carbamoyl)piperazine-1-carboxylate], for which the IC50 in assay [1] lay within 100 to 500 nM; in assay [3] it was 1000 to 2000 nM.

As to `O=C(NC1CC(F)(F)C1)[C@H](c1ccccc1Cl)N(C(=O)[C@@H]1Cc2ccccc2N1)c1cc(F)cc(F)c1` (single isomer, unassigned) [Compound 118], the IC50 in assay [1] and in assay [3] was 100 to 500 nM each time.
